Results on 25 molecules are retold here after patent US10245249B2, “Pharmaceutical compositions comprising nitroxyl donors” (Cardioxyl Pharmaceuticals, Inc., priority 2013, dated 2019).

The structures appear in SMILES notation.

The nature of data set [1]: In vitro stability (half-life) in phosphate buffered saline (PBS) pH 7.4. Format: physicochemical. Conditions: pH 7.4, 5 μM, PBS pH 7.4, 37° C., read-out: T1/2 (minutes) PBS. The protocol: (§1) Certain compounds from Tables 1 and 2 and CXL-1020 were tested for their stability in phosphate buffered saline (PBS) and plasma. The assay system comprised (i) PBS, or plasma from rat, dog or human (at least 3 donors, male, pooled) at pH 7.4, and (ii) for tests conducted in plasma, an anticoagulant (sodium heparin or sodium citrate). Each test compound (5 μM) was incubated in PBS or plasma at 37° C. on a THERMOMIXER® with shaking. Three samples (n=3) were taken at each of seven sampling time points: 0, 10, 30, 60, 90, 180 and 360 minutes. The samples were immediately combined with 3 volumes (i.e., 3 times the volume of PBS or plasma) of acetonitrile containing 1% formic acid and an internal standard to terminate the reaction. AB SCIEX API 3000 LC-MS/MS analysis of the test compounds was performed without a standard curve. Half-lives (T1/2) of the test compounds were determined from graphs of the percent remaining values using the peak area response ratio. For compounds tested multiple times, the value provided in the Table represents an average of the replicate assays.

A short description of data set [2]: In vitro stability (half-life) in rat plasma. Type of data set: in vitro ADME. The conditions noted are these: rat plasma pH 7.4 with anticoagulant, 37° C.; for half-life at 5 μM: male, rat, plasma, pH 7.4, 5 μM, read-out: T1/2 (minutes) Rat. The protocol: as §1
Data set [3] is described as follows: HNO production determined via N2O quantification (GC headspace analysis). Format: physicochemical. The conditions noted are these: PBS, 37° C. The text has this:
Nitrous oxide (N2O) is produced via the dimerization and dehydration of HNO, and is the most common marker for nitroxyl production (Fukuto et al., Chem. Res. Toxicol. 18:790-801 (2005)). […] Using either nitrous oxide gas or Angeli's salt (AS) as a standard, the relative amounts of N2O released from compounds of the disclosure was examined via gas chromatography (GC) headspace analysis.
A procedure for determining the relative amounts of N2O released from compounds of the disclosure is as follows. GC was performed on an Agilent gas chromatograph equipped with a split injector (10:1 splitting), microelectron capture detector, and a HP-MOLSIV 30 m×0.32 mm×25 μm molecular sieve capillary column. Helium was used as the carrier (4 mL/min) gas and nitrogen was used as the make-up (20 mL/min) gas. The injector oven and the detector oven were kept at 200° C. and 325° C., respectively. All nitrous oxide analyses were performed with the column oven held at a constant temperature of 200° C.
All gas injections were made using an automated headspace analyzer. Vial pressurization was 15 psi. The analyzer's sample oven, sampling valve, and transfer line were kept at 40° C., 45° C., and 50° C., respectively. The oven stabilization, vial pressurization, loop fill, loop equilibration, and sample injection times were 1.00 min., 0.20 min., 0.20 min., 0.05 min., and 1.00 min., respectively.
All determinations used a batch of nominal 20 mL headspace vials with volumes pre-measured for sample uniformity (actual vial volume varied by <2.0% relative standard deviation (n=6)). The average vial volume for the batch was determined from six randomly-selected vials by calculating the weight difference between the capped and sealed empty (i.e., air-filled) vial and the capped and sealed deionized water-filled vial using the known density of deionized water, then averaging. Blanks were prepared by sealing and capping two vials then purging each for 20 seconds with a gentle argon stream. Nitroxyl standards were prepared by sealing and capping four vials then purging each for 1 minute with a gentle stream, from a gas cylinder, of a 3000 ppm […].
CXL-1020 (N-hydroxy-2-methanesulfonylbenzene-1-sulfonamide) “standards” were prepared by, in duplicate, accurately weighing 10±0.5 mg of CXL-1020 and adding it to each 4 mL vial. Using an auto pipette, 1 mL of argon-purged anhydrous DMF (Sigma-Aldrich) was added to each 4 mL vial to form a CXL-1020 stock solution for each sample and the vials were capped and shaken and/or sonicated to insure complete dissolution upon visual observation. Using an auto pipette, 20 mL vials were charged with 5 mL of PBS (purged for at least 30 min. with argon prior to use), purged with argon for at least 20 sec., and sealed with a rubber septum. Using a 50 μL syringe, 50 μL of the CXL-1020 stock solution was injected into each 20 mL vial containing the PBS.
Samples were prepared as follows. In duplicate, 18±1 mg of each sample was accurately weighed into each 4 mL vial. Using an auto pipette, 1 mL of argon-purged anhydrous DMF was added to each 4 mL vial to form a sample stock solution for each sample and the vials were capped and shaken and/or sonicated to insure complete sample dissolution upon visual observation. Using an auto pipette, 20 mL vials were charged with 5 mL of PBS (purged for at least 30 min. with argon prior to use), purged with argon for at least 20 sec., and sealed with a rubber septum. The vials were equilibrated for at least 10 min. at 37° C. in a dry block heater. Thereafter, using a 50 μL syringe, 50 μL of a sample stock solution was injected into each 20 mL vial containing the PBS. The vials were then held at 37° C. in the dry block heater for a time period such that the sum of the time spent in the dry block heater plus the time spent in the automated headspace analyzer oven before sample injection equaled the desired incubation time. […]

`O=S(=O)(NO)c1ccccn1` [Compound 32, N-Hydroxypyridine-2-sulfonamide]: the half-life at 5 μM amounted to 61 min in data set [1] and 32 min in data set [2]. Also, the “Relative N2O Yield (90 minutes incubation)” value in data set [3] came out at 71%.
For `CC(C)NC(=O)c1ccc(S(=O)(=O)NO)s1` [Compound 22, 5-(Hydroxysulfamoyl)-N-(propan-2-yl)thiophene-2-carboxamide], the half-life at 5 μM was determined as 33 min in data set [1] and 23 min in data set [2]. Besides, the “Relative N2O Yield (90 minutes incubation)” value in data set [3] worked out at 85%.
For the molecule `O=S(=O)(NO)c1cc(CO)ccc1Cl` [Compound 10, 2-Chloro-N-hydroxy-5-(hydroxymethyl)benzene-1-sulfonamide], the half-life at 5 μM in data set [1] came to 5 min. Further, the “Relative N2O Yield (90 minutes incubation)” value in data set [3] was determined as 91%.
In the case of `COc1ccc2cc(S(=O)(=O)NO)oc2c1` [Compound 13, N-Hydroxy-6-methoxy-1-benzofuran-2-sulfonamide], in data set [1], the half-life at 5 μM is 42 min. In addition, in data set [3], the “Relative N2O Yield (90 minutes incubation)” value came to 86%.
`CCN(CC)C(=O)c1ccc(S(=O)(=O)NO)s1` [Compound 19, N,N-Diethyl-5-(hydroxysulfamoyl)thiophene-2-carboxamide]: the half-life at 5 μM in data set [1] came to 44 min. The “Relative N2O Yield (90 minutes incubation)” value in data set [3] amounted to 77%.
For the molecule `CS(=O)(=O)c1csc(S(=O)(=O)NO)c1` [Compound 16, N-Hydroxy-4-methanesulfonylthiophene-2-sulfonamide], in data set [1], the half-life at 5 μM stood at 20 min. Besides, the “Relative N2O Yield (90 minutes incubation)” value in data set [3] turned out to be 86%.
Regarding `O=S(=O)(NO)c1cc(S(=O)(=O)c2ccccc2)cs1` [Compound 51, 4-(Benzenesulfonyl)-N-hydroxythiophene-2-sulfonamide], the half-life at 5 μM in data set [1] is 15 min; in data set [2] it was 7 min. In addition, the “Relative N2O Yield (90 minutes incubation)” value in data set [3] came to 96%.
`Cc1cc(F)ccc1S(=O)(=O)NO` [Compound 39, 4-Fluoro-N-hydroxy-2-methylbenzene-1-sulfonamide]: the half-life at 5 μM in data set [1] was 30 min. In addition, the half-life at 5 μM in data set [2] is 29 min. In data set [3], the “Relative N2O Yield (90 minutes incubation)” value amounted to 60% and the “Relative N2O Yield (360 minutes incubation)” value came to 75%.
For `O=S(=O)(NO)c1cc(Cl)c(Cl)s1` [Compound 12, 4,5-Dichloro-N-hydroxythiophene-2-sulfonamide], the half-life at 5 μM in data set [1] was determined as 20 min. In addition, in data set [3], the “Relative N2O Yield (90 minutes incubation)” value is 29%.
With `Cc1ccc(S(=O)(=O)NO)c(F)c1` [Compound 14, 2-Fluoro-N-hydroxy-4-methylbenzene-1-sulfonamide], the half-life at 5 μM in data set [1] was 75 min; in data set [2], 13 min. Also, the “Relative N2O Yield (90 minutes incubation)” value in data set [3] is recorded as 48%. In addition, the “Relative N2O Yield (360 minutes incubation)” value in data set [3] was 70%.
Regarding `O=S(=O)(NO)c1cccc2ccoc12` [Compound 4, N-Hydroxy-1-benzofuran-7-sulfonamide], the half-life at 5 μM in data set [1] worked out at 149 min. The “Relative N2O Yield (90 minutes incubation)” value in data set [3] came to 64%.
Turning to `Cc1cc(S(=O)(=O)NO)c(C)cc1Cl` [Compound 18, 4-Chloro-N-hydroxy-2,5-dimethylbenzene-1-sulfonamide], the half-life at 5 μM in data set [1] amounted to 56 min. Also, the half-life at 5 μM in data set [2] is more than 360 min. In addition, in data set [3], the “Relative N2O Yield (90 minutes incubation)” value is on record as 56% and the “Relative N2O Yield (360 minutes incubation)” value came out at 73%.
As for `COc1ccc(Br)cc1S(=O)(=O)NO` [Compound 17, 5-Bromo-N-hydroxy-2-methoxybenzene-1-sulfonamide], the half-life at 5 μM in data set [1] stood at 59 min. In addition, in data set [2], the half-life at 5 μM was more than 360 min. Moreover, in data set [3], the “Relative N2O Yield (90 minutes incubation)” value is recorded as 53% and the “Relative N2O Yield (360 minutes incubation)” value was determined as 77%.
For the molecule `O=C(c1csc(S(=O)(=O)NO)c1)N1CCOCC1` [Compound 35, N-Hydroxy-4-(morpholine-4-carbonyl)thiophene-2-sulfonamide], the half-life at 5 μM worked out at 58 min in data set [1] and 19 min in data set [2]. Moreover, the “Relative N2O Yield (90 minutes incubation)” value in data set [3] was 100%.
`Cc1ccc(C)c(S(=O)(=O)NO)c1` [Compound 49, N-Hydroxy-2,5-dimethylbenzene-1-sulfonamide]: the half-life at 5 μM in data set [1] was 87 min. In addition, the half-life at 5 μM in data set [2] came out at 13 min. Further, in data set [3], the “Relative N2O Yield (90 minutes incubation)” value is reported as 42% and the “Relative N2O Yield (360 minutes incubation)” value is reported as 68%.
As for `CS(=O)(=O)c1ccc(S(=O)(=O)NO)s1` [Compound 23, N-Hydroxy-5-methanesulfonylthiophene-2-sulfonamide], the half-life at 5 μM in data set [1] amounted to 66 min.
`O=S(=O)(NO)c1ccc(Cl)c(Cl)c1` [Compound 95, 3,4-Dichloro-N-hydroxybenzene-1-sulfonamide]: the half-life at 5 μM in data set [1] and in data set [2] was more than 360 min throughout.
As to `Cc1nn(C)c(Cl)c1S(=O)(=O)NO` [Compound 30, 5-Chloro-N-hydroxy-1,3-dimethyl-1H-pyrazole-4-sulfonamide], the half-life at 5 μM in data set [1] came to 385 min. Further, the “Relative N2O Yield (90 minutes incubation)” value in data set [3] came out at 27%.
`O=S(=O)(NO)c1cccc2nsnc12` [Compound 24, N-Hydroxy-2,1,3-benzothiadiazole-4-sulfonamide]: in data set [1], the half-life at 5 μM is 37 min. The half-life at 5 μM in data set [2] stood at 14 min. In data set [3], the “Relative N2O Yield (90 minutes incubation)” value came out at 60% and the “Relative N2O Yield (360 minutes incubation)” value stood at 69%.
Take `CC(=O)N1CCc2cc(Cl)c(S(=O)(=O)NO)cc21` [Compound 11, 1-Acetyl-5-chloro-N-hydroxy-2,3-dihydro-1H-indole-6-sulfonamide]: the half-life at 5 μM in data set [1] amounted to 5 min. Besides, in data set [2], the half-life at 5 μM is less than 5 min. Besides, in data set [3], the “Relative N2O Yield (90 minutes incubation)” value is 55% and the “Relative N2O Yield (360 minutes incubation)” value is 81%.
Consider `Cc1ccc(F)cc1S(=O)(=O)NO` [Compound 20, 5-Fluoro-N-hydroxy-2-methylbenzene-1-sulfonamide], for which the “T1/2 (minutes) Rat” value in data set [2] (5 μM) turned out to be 7 min. For the same molecule, the “Relative N2O Yield (90 minutes incubation)” value in data set [3] came out at 90%.
As to `Cn1cc(S(=O)(=O)NO)cn1` [Compound 31, N-Hydroxy-1-methyl-1H-pyrazole-4-sulfonamide], in data set [1], the half-life at 5 μM turned out to be 745 min.
With `O=S(=O)(NO)c1ccc2nsnc2c1` [Compound 15, N-Hydroxy-2,1,3-benzothiadiazole-5-sulfonamide], in data set [1], the half-life at 5 μM is 63 min. In addition, in data set [3], the “Relative N2O Yield (90 minutes incubation)” value was 59% and the “Relative N2O Yield (360 minutes incubation)” value amounted to 71%.
For `O=C(c1cc(S(=O)(=O)NO)cs1)N1CCOCC1` [Compound 28, N-Hydroxy-5-(morpholine-4-carbonyl)thiophene-3-sulfonamide], the half-life at 5 μM in data set [1] was 136 min. In data set [3], the “Relative N2O Yield (90 minutes incubation)” value turned out to be 74%.
Consider `COc1ccccc1S(=O)(=O)NO` [Compound 25, N-Hydroxy-2-methoxybenzene-1-sulfonamide], for which, in data set [1], the half-life at 5 μM was 86 min. Further, in data set [3], the “Relative N2O Yield (90 minutes incubation)” value amounted to 7% and the “Relative N2O Yield (360 minutes incubation)” value is given as 28%.
